The text below walks through data of ChEMBL document CHEMBL3507680, “University of Dundee, Gates Library screen for HepG2 cell viability”.

This series is described as follows: Human HepG2 cell viability assay in 384 well format. Format: toxicity, cell-based. Set-up: dose 125 nL, time 70.5 hour; cytotoxicity at 70.5 h: concentration not given beside the values. The following applies: HepG2 cells, read-out: Inhibition.
On to `c1ccc(COC[C@@]23CCC[C@@H]2CN(Cc2ccccn2)C3)nc1`, for which the cytotoxicity at 70.5 h was 0.536%.

With `Cn1cc(CN2C[C@@H]3CCCO[C@@H]3[C@H](N3CCCC3=O)C2)cn1`, the cytotoxicity at 70.5 h was -4.04%. The figure for `OC1(Cn2ccc3ncccc32)CCN(Cc2cc(F)cc(F)c2)CC1` is 5.69%. The figure for `Cc1nn(Cn2ccc(C(=O)N3CCCC3)n2)c(C)c1Cl` is -9.33%. Under `Cc1c(CN2CCCC2c2cncc(CN3CCCC3)n2)cnn1C` (stereo not drawn) stands 1.84%; under `O=C(Nc1cccnc1)[C@@H]1CCO[C@@H]2CCN(Cc3cccnc3)C[C@@H]21`, -22.1%; under `COc1ncnc(N)c1CNCCOc1ccccc1Cl`, -5.86%.

As for `O=C(NCC1CCSCC1)N(CCCO)C1CCc2ccccc21` (stereo not drawn), the cytotoxicity at 70.5 h amounted to 24.2%. The figure for `CCc1cc(C)nc(N2CCN(C(C)c3nc(C)no3)CC2)n1` (stereo not drawn) is -7.01%; for `O=C(Nc1ccccc1)[C@H]1CN2CC[C@H]1C[C@@H]2Cn1cc(CCO)nn1` it is -3.35%. Under `COc1ccccc1CN(Cc1cccnc1)CC1CCCO1` (stereo not drawn) stands -1.02%; under `c1cc(CN2CCC(Cc3noc(C4CC4)n3)CC2)c2c(c1)OCO2`, 0.325%. Turning to `CCCN1C(=O)C2(CCCCC2)NC1c1c[nH]nc1-c1cccnc1` (stereo not drawn), the cytotoxicity at 70.5 h is 12.8%. The figure for `CC(O)c1cn(Cc2ccc(Cl)cc2Cl)nn1` (stereo not drawn) is -7.31%; for `Cc1nc(C)n(CC2CCCCN2CCOc2ccc(C#N)cc2)n1` (stereo not drawn) it is -9.43%. The figure for `CCCS(=O)(=O)N1CCN(c2cc(-n3cnc(C)c3C)nc(C)n2)CC1` is -4.37%. Under `CCCN1CCN(C(=O)c2cncnc2C)[C@H]2CS(=O)(=O)C[C@H]21` stands 3.92%; under `O=C(NCCNc1ncccn1)C1CC(=O)N(CC2CC2)C1` (stereo not drawn), 16.4%. Consider `CCn1c(CC2CCN(C(=O)C3CC(C(C)C)=NO3)CC2)nn(C)c1=O` (stereo not drawn), for which the cytotoxicity at 70.5 h was -6.72%. Under `Cc1nccn1C1CCCN(C(=O)Cc2cn3ccccc3n2)C1` (stereo not drawn) stands 16.9%; under `COCCN1CCCC1c1nccnc1Nc1nccs1` (stereo not drawn), -4.09%; under `Cc1ccc(CN2CC[C@H]3C(=O)N(c4cccnc4)CCO[C@H]3C2)o1`, -5.97%. The figure for `CCS(=O)(=O)c1ccc(CNc2c(Cl)cccc2C#N)cc1` is -1.09%.

For the compound `Cc1ccccc1N1CCN(C(=O)c2cscn2)C(C)C1` (stereo not drawn), the cytotoxicity at 70.5 h is -1.54%. Regarding `CC(NC(=O)N1CCc2sccc2C1)c1nncn1C` (stereo not drawn), the cytotoxicity at 70.5 h was -5.43%.

`CCOc1ccc(NS(=O)(=O)c2cc(C)c(C(=O)O)s2)cc1F`: the cytotoxicity at 70.5 h is -8.14%.

Regarding `COc1ccccc1C(C)(C)NC(=O)Nc1ccc(F)c(C(N)=O)c1`, the cytotoxicity at 70.5 h is -4.97%.

With `Cc1cccc(CN2CCC3(CCN(c4ncccn4)CC3)C2=O)c1`, the cytotoxicity at 70.5 h was 1.2%. In the case of `Cc1ccccc1CCC1CCCN(Cc2c(C)[nH]c(=O)[nH]c2=O)C1` (stereo not drawn), the cytotoxicity at 70.5 h was -8.6%.

Turning to `COCC(=O)NCc1cc(=O)n2c(n1)CN(Cc1ccco1)CCC2`, the cytotoxicity at 70.5 h turned out to be 2.27%.

For the compound `CN1CCN(S(=O)(=O)c2ccc(C(=O)N3CC[C@@H](O)C3)cc2)CC1=O`, the cytotoxicity at 70.5 h is -5.98%. Under `CCc1nccn1C1CCCN(C(=O)c2csc(C3CC3)n2)C1` (stereo not drawn) stands -22%. Regarding `COc1cc(C(=O)Nc2nc(C)no2)cc(OC)c1Br`, the cytotoxicity at 70.5 h is 27.4%. Under `CC(C)Oc1ccc(C(=O)N2CCC(Nc3cccnn3)CC2)cn1` stands -5.88%; under `CCC(O)CN1CCN(C(=O)c2cccc3c2OCC(=O)N3)CC1` (stereo not drawn), 27.7%; under `O=C(Cc1ccsc1)N1C[C@@H]2COC[C@]2(COc2cccnc2)C1`, -6.1%. For `CCN1CCN(c2ccc(F)cc2C(C)NCc2ccncc2)CC1` (stereo not drawn), the cytotoxicity at 70.5 h is -1.51%.

With `CCc1ccc(CN2CCN(c3ccc(C(N)=O)cn3)CC2)nc1`, the cytotoxicity at 70.5 h worked out at 2.82%. The figure for `CN1CCOCC12CCN(c1ccc(C#N)cc1)CC2` is -5.69%; for `Cc1n[nH]c(C2CN(CCCOc3ccc(F)cc3)CCO2)n1` (stereo not drawn) it is -12.3%. Under `CC(C)(C)c1ncc(C(=O)NCCNC(=O)c2cccs2)s1` stands 12.5%. `Cn1c(C(F)(F)F)nn(CCNC(=O)CCc2ccccc2)c1=O`: the cytotoxicity at 70.5 h is 22.1%. The figure for `CCC(N)c1ccccc1OCC(=O)N1CCCC1` (stereo not drawn) is -7.75%. Take `COC[C@H]1CC[C@H]2[C@H](CCN2C(=O)c2ccncc2F)O1`: the cytotoxicity at 70.5 h was -0.359%. The figure for `CC(C)c1nnc2n1CCN(C(=O)c1cccc(C(F)(F)F)c1)C2` is 6.51%. Under `CC(C)Oc1ncnc2c1CCN(Cc1ccoc1)CC2` stands -0.464%; under `CCOCCC(=O)NC(Cc1ccc(C)cc1)c1ccccn1` (stereo not drawn), 0.116%. For `Fc1ccccc1C1NCCc2cc3c(cc21)OCCO3` (stereo not drawn), the cytotoxicity at 70.5 h came to 0.151%.

On to `CN1CCN(Cc2cccnc2)C2(CCN(c3ncc(F)cn3)C2)C1=O` (stereo not drawn), for which the cytotoxicity at 70.5 h was -6.18%. The figure for `COc1cccc(NC(=O)Cc2c(C)nc3c(c2C)c(=O)[nH]n3C)c1` is -6.7%. The figure for `CCc1nc(CN2CCCC(N(C)CCn3cncn3)C2)no1` (stereo not drawn) is -9.76%; for `COc1cc(C2SCC(=O)Nc3[nH]ncc32)cc(OC)c1OC` (stereo not drawn) it is -5.35%. The figure for `CC(c1ccco1)N(C(=O)c1cccc(C#N)c1)C1CC1` (stereo not drawn) is -5.03%; for `COCCCC1(CO)CCCN(Cc2cccc(C#N)c2)C1` (stereo not drawn) it is -5.8%; for `COc1ccc(S(=O)(=O)NC(=O)c2c(C)noc2C(C)C)cc1OC` it is -2.97%. Regarding `O=C(CCc1ccco1)N1CCC(Oc2ccccc2)(C(=O)O)CC1`, the cytotoxicity at 70.5 h was determined as 2.91%. The figure for `Cc1cccnc1C(Cc1ccsc1)NC(=O)Cn1cccnc1=O` (stereo not drawn) is -1.07%; for `Cc1nc(CC(=O)N2CCc3nc(-c4cnccn4)nc(O)c3C2)cs1` it is 12.3%. The figure for `O=C1COC2(COCCN(c3cnccn3)C2)CN1c1cccc(F)c1` (stereo not drawn) is -6.69%; for `CC(C)c1cc(NC(=O)CNC2CCCN(c3cccnn3)C2)on1` (stereo not drawn) it is 3.11%. Under `CCc1ccc(C(NC(=O)CCS(C)(=O)=O)C(C)(C)C)o1` (stereo not drawn) stands -8.82%; under `CC(Nc1nc(-c2ccccc2)nc2c1CCNCC2)c1cccnc1` (stereo not drawn), 2.48%. Take `COCCC(C)NS(=O)(=O)c1ccc(C)c(N(C)C)c1` (stereo not drawn): the cytotoxicity at 70.5 h is -2.25%. The figure for `CSc1nccc(NCC2CNCCO2)n1` (stereo not drawn) is -5.51%; for `Cc1nc(CCCNC(=O)[C@H]2CNC[C@@H](C(=O)N3CCCC3)C2)sc1C` it is -5.47%. Under `Cc1nc(C)n(C2CCCN(C(=O)CCCNc3ncccn3)C2)n1` (stereo not drawn) stands -4.88%.

For `CC(C)NC(=O)N1CCC2(CC1)Cc1ccccc1CN(C)C2=O`, the cytotoxicity at 70.5 h is -2.79%. The figure for `Cc1ccc(CN2CCO[C@@H]3C[C@@H](C(=O)NC(C)C)C[C@H]32)o1` is -8.04%; for `c1ccc(N2CCC(c3ccncc3)CC2)cc1` it is 5.91%. As for `CCS(=O)(=O)c1nccn1-c1cccc(F)c1`, the cytotoxicity at 70.5 h was -9.95%.

As to `CC(=O)Nc1nccn1Cc1ccccc1Cl`, the cytotoxicity at 70.5 h was -2.67%.

Take `O=C(c1ccoc1)N1CCOCC2(CCN(C3CCOCC3)C2)C1` (stereo not drawn): the cytotoxicity at 70.5 h was -2.14%. Under `Cn1nc(CNS(=O)(=O)Cc2ccccc2F)c2c1CCCC2` stands -5.77%. The figure for `COc1ccc(CN2CC(O)CN(C(=O)C3CCC3)CC2=O)cc1` (stereo not drawn) is -0.603%. As for `Cc1noc(C)c1CCC(=O)N1CCCCC1CNS(C)(=O)=O` (stereo not drawn), the cytotoxicity at 70.5 h is -7.67%.

`OC1(CN2CCC(Oc3cccnc3)CC2)CNCCOC1` (stereo not drawn): the cytotoxicity at 70.5 h was -7.48%. The figure for `Cc1nc(C2CCCN(c3ncc(Br)cn3)C2)no1` (stereo not drawn) is -13.9%; for `CN1C(=O)COc2ccc(C(=O)Cn3cnc4ccsc4c3=O)cc21` it is 17.1%; for `CCC1c2ccsc2CCN1C(=O)NCCc1ccccn1` (stereo not drawn) it is -9.75%. The figure for `CCc1cn[nH]c1C1CCN(C(=O)c2cc(C(C)=O)c(C)[nH]c2=O)CC1` is -9.17%; for `O=S(=O)(c1ccccc1)N1CCN(Cc2ccc(F)cc2Br)CC1` it is -8.77%; for `Cn1cnc2c(-c3cccnc3)nc(C3CCNCC3)cc21` it is 15.6%. For the compound `CCc1nc(C2CCCN2CCC(=O)N2CCc3ccccc32)no1` (stereo not drawn), the cytotoxicity at 70.5 h is 20.5%. The figure for `c1ccc(Cc2nc(C3CC3)nn2-c2ccc3c(c2)OCCO3)nc1` is 43.6%; for `CN(Cc1cccnc1)Cc1cn2c(n1)CN(C1CCOCC1)CC2` it is -4.27%.

Turning to `Cc1nc(COc2ccc(CNCC3CN(C)CCO3)cc2)cs1` (stereo not drawn), the cytotoxicity at 70.5 h stood at 20.1%. Under `N#Cc1ccccc1OCCN1CCCCC1Cn1cncn1` (stereo not drawn) stands -7.56%; under `O=C(c1ccco1)N1CCOCC2(C1)CN(c1ccccn1)C(=O)CO2` (stereo not drawn), -4.96%.

On to `N#CCCN(C(=O)COC1CCCC1)C1CC1`, for which the cytotoxicity at 70.5 h was -0.353%. Under `COc1cccc(-c2nc(C)c(C(=O)NCCC(=O)O)s2)c1` stands -15.8%. As for `Cc1nc(C)c(CNC(=O)N2CCc3ccccc3C2CO)s1` (stereo not drawn), the cytotoxicity at 70.5 h is -1.94%. For the compound `Cc1cc(N[C@H]2CN(CC(C)(C)N3CCOCC3)C[C@@H]2C2CC2)ncn1`, the cytotoxicity at 70.5 h was -15.4%. The figure for `CCn1ncc2c1C(COC)CN(Cc1cnn(C)c1)C2` (stereo not drawn) is 8.92%; for `CN1CCN(CC2CC2)C(=O)C12CCN(C(=O)c1cnccn1)CC2` it is -3.74%. Under `CCCN(C(=O)CCS(=O)(=O)Cc1ccccc1)c1cccc(C)c1` stands -4.29%. Under `CCc1noc(CN(C)C(=O)c2ccnc(OC3CCC3)c2)n1` stands -0.589%; under `Cc1cccc(CO[C@H]2CO[C@@]3(CCN(S(=O)(=O)N(C)C)C3)C2)n1`, 15.2%. Regarding `Cc1cccc(CN2CC[C@@H]3[C@@H]2CCN3Cc2cccs2)n1`, the cytotoxicity at 70.5 h was -5.52%.
